Assay results: patent US5164185A, “Pharmaceutical and cosmetic depigmentation compositions with a caffeic acid base” (priority 1989, dated 1992)

Assays:
melanocytes = conditions: in words, prior art; cited from earlier work
melanin biosynthesis = test: depigmenting action (studies on substances used singly or in combination); conditions: in words
From the text: In these latter, at least one of the active ingredients may be liposomes.

[1] = system: fungus-derived tyrosinase; test: in vitro tyrosinase inhibition, dopachrome formation by visible spectrophotometry (475 nm); assay type: biochemical; conditions: in words
From the text: The efficacy of the various combination according to the invention have been studied in vitro by measuring out, using visible spectrophotometry (475 nm), the quantity of dopachrome formed during the chain of tyrosine-oxidation reactions. These oxidation reactions are catalyzed in vitro using fungus-derived tyrosinase in the presence of a co-substrate (for example, a small quantity of L-dopa) in order to trigger the hydroxylation reaction of L-tyrosine into L-dopa, this latter being then oxidized by catalysis into dopaquinone, then into dopachrome, an intermediate product formed before the non-enzymatic oxidation reactions leading to melanin formation.
Accordingly, the concentration of dopachrome formed over time is monitored in the presence of various inhibitors of tyrosinasic activity.
The concentrations of inhibitors are expressed as molar percents in relation to the concentration of tyrosine present in the reactive medium.
The inhibitory effect may be expressed, in relation to the control curve (absence of inhibitor) by lowering of the quantity of dopachrome formed and/or by a slowing of dopachrome-formation kinetics. […]

## Oc1ccc(O)cc1 [hydroquinone]
melanocytes
  irritation and cytotoxicity for melanocytes: especially irritating and cytotoxic for melanocytes

## O=C(O)/C=C/c1ccc(O)c(O)c1 [caffeic acid]
Melanin biosynthesis
  depigmenting action: especially interesting depigmenting action
[1]
  inhibition of tyrosinasic activity leading to limited formation of dopachrome: inhibition of tyrosinasic activity
